# Entries after “also recorded” stand apart in the source; their conditions may differ. Like-named read-outs stand apart in the source and are kept apart here.
# What was measured:
# Solubility = assay type: physicochemical
# CYP2C9 = CYP2C9 (Homo sapiens, UniProt P11712); test: In vitro CYP inhibition (diclofenac probe); assay type: in vitro ADME; settings: diclofenac probe substrate
# Text: (§1) Probe substrates for CYP2C8 were not evaluated in this study.
# rats [1] = test: In vivo unscheduled DNA synthesis assay; settings: rat unscheduled DNA synthesis, 11 times human clinical exposure (Cmax)
# rats [2] = settings: rat, in vivo
# UGT1A3 [3] = target: T1, UGT1A3 (Homo sapiens, UniProt P35503); test: In vitro glucuronidation; assay type: in vitro ADME
# [4] = Food effect open-label randomized crossover study; assay type: in vivo, human; settings: standard high-fat breakfast
# Text: The calcium content of this meal may have also contributed to this decrease in exposure.
# CYP2C8 [5] = target: T2, CYP2C8 (Homo sapiens, UniProt P10632); test: In vitro CYP inhibition (paclitaxel probe); assay type: in vitro ADME; settings: paclitaxel probe substrate
# Text: as §1
# [6] = Clinical pharmacokinetics: absorption, distribution, metabolism, elimination (incl. radiolabel study); assay type: in vivo, human; settings: for half-life: plasma, oral
# Method: Based on urinary excretion and biotransformation products eliminated in feces, the oral absorption of drug-related material following administration of a single 75 mg solution dose was estimated to be at least 52%.
# Metabolites due to glucuronidation and oxidation were also detected.
# mice [7] = settings: mouse, in vivo
# CYP1A2 = CYP1A2 (Homo sapiens, UniProt P05177); test: In vitro oxidative metabolism; assay type: in vitro ADME
# female rats = test: Early embryonic development study; assay type: in vivo, rat; settings: highest dose, 7 times human clinical exposure (AUC); maternally toxic
# dogs [8] = settings: dog, in vivo
# CYP2C8 [9] = target: T2, CYP2C8; test: In vitro oxidative metabolism; assay type: in vitro ADME
# p-glycoprotein (Pgp) = p-glycoprotein (Pgp) (Homo sapiens, UniProt P08183); test: Transporter substrate assessment; assay type: in vitro ADME
# rabbits = test: Toxicology in rabbits; assay type: in vivo, rabbit; settings: 1.4 times human clinical exposure (AUC)
# UGT1A4 = UGT1A4 (Homo sapiens, UniProt P22310); test: In vitro UGT inhibition; assay type: in vitro ADME
# Text: (§2) Monitor patients closely for signs or symptoms of excessive exposure to these drugs when concomitantly administered with Promacta®.
# UGT1A6 = UGT1A6 (Homo sapiens, UniProt P19224); test: In vitro UGT inhibition; assay type: in vitro ADME
# Text: as §2
# UGT2B7 = UGT2B7 (Homo sapiens, UniProt P16662); test: In vitro UGT inhibition; assay type: in vitro ADME
# Text: as §2
# UGT1A3 [10] = target: T1, UGT1A3; test: In vitro UGT inhibition; assay type: in vitro ADME
# Text: as §2
# UGT1A1 [11] = target: T3, UGT1A1 (Homo sapiens, UniProt P22309); test: In vitro UGT inhibition; assay type: in vitro ADME
# Text: as §2
# UGT2B15 = UGT2B15 (Homo sapiens, UniProt P54855); test: In vitro UGT inhibition; assay type: in vitro ADME
# Text: as §2
# UGT1A9 = UGT1A9 (Homo sapiens, UniProt O60656); test: In vitro UGT inhibition; assay type: in vitro ADME
# Text: as §2
# [12] = In vitro phototoxicity and photoclastogenicity; assay type: cell-based
# rats [13] = test: In vivo micronucleus assay; settings: rat micronucleus, 11 times human clinical exposure (Cmax)
# rats [14] = test: Fertility studies in rats; assay type: in vivo, rat
# bacterial = test: Bacterial mutation assay
# dogs [15] = test: Platelet production in animals; assay type: in vivo, dog
# [16] = Pharmacokinetics by race and gender; assay type: in vivo, human
# human plasma proteins = test: In vitro plasma protein binding; assay type: in vitro ADME
# pregnant rats (F0) = test: Pre- and post-natal developmental toxicity study; assay type: in vivo, rat
# OATP1B1 [17] = target: T4, OATP1B1 (Homo sapiens, UniProt Q9Y6L6); test: In vitro OATP1B1 inhibition; assay type: in vitro ADME
# pregnant rabbits = settings: oral 30, 80, or 150 mg/kg/day (0.1, 0.3, 0.6 times human clinical exposure, AUC)
# rats [18] = test: Platelet production in animals; assay type: in vivo, rat
# OATP1B1 [19] = target: T4, OATP1B1; test: Transporter substrate assessment; assay type: in vitro ADME
# mice [20] = settings: mouse, in vivo; remark: listed apart in the source
# UGT1A1 [21] = target: T3, UGT1A1; test: In vitro glucuronidation; assay type: in vitro ADME
# mice [22] = test: 2-year oral carcinogenicity study in mice; settings: 2-year study, lowest dose (25 mg/kg/day)
# mice [23] = test: Platelet production in animals; assay type: in vivo, mouse
# mice [24] = test: In vivo cutaneous phototoxicity; set-up: species or system mouse; settings: up to 11 times human clinical exposure (AUC)
# rats [25] = settings: rat, in vivo; remark: listed apart in the source
# mouse lymphoma = test: In vitro mouse lymphoma assay; assay type: cell-based
# pregnant rats = settings: rat, in vivo
# healthy adult subjects = test: QT/QTc double-blind placebo- and positive-controlled crossover trial; assay type: in vivo, human; settings: 400 mg, single oral dose
# Method: The effects of Promacta® at doses up to 150 mg daily for 5 days (supratherapeutic doses) on the QT/QTc interval was evaluated in a double-blind, randomized, placebo- and positive-controlled (moxifloxacin 400 mg, single oral dose) crossover trial in healthy adult subjects.
# T2 sequence (P10632 whole entry): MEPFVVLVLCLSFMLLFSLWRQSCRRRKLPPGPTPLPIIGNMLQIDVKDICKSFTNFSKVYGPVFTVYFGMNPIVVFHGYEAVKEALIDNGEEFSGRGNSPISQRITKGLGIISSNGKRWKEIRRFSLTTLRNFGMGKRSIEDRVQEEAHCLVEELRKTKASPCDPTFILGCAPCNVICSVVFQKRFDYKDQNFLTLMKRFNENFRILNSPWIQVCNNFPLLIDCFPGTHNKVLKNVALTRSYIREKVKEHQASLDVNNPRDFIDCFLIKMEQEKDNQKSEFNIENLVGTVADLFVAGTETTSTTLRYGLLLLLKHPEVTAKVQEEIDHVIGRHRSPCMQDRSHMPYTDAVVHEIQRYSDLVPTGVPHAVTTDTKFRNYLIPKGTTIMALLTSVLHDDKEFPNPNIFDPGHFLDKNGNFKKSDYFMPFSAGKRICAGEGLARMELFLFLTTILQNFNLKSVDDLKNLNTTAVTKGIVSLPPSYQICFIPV
# Chain of CYP1A2 (P05177 whole entry): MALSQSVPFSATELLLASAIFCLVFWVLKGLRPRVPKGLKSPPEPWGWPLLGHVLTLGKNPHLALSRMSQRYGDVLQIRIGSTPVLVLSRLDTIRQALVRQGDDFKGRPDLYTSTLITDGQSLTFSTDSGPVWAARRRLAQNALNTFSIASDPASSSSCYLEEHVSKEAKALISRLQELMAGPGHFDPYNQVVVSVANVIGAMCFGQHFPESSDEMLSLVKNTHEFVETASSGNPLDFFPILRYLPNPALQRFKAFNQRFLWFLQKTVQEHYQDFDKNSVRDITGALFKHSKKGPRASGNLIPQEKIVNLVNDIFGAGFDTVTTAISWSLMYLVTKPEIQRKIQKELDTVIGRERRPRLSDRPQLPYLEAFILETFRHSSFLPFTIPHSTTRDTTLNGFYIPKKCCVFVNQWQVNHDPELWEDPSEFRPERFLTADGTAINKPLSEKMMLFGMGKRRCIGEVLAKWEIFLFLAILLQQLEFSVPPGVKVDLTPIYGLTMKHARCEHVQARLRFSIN
# T4 sequence (Q9Y6L6 whole entry): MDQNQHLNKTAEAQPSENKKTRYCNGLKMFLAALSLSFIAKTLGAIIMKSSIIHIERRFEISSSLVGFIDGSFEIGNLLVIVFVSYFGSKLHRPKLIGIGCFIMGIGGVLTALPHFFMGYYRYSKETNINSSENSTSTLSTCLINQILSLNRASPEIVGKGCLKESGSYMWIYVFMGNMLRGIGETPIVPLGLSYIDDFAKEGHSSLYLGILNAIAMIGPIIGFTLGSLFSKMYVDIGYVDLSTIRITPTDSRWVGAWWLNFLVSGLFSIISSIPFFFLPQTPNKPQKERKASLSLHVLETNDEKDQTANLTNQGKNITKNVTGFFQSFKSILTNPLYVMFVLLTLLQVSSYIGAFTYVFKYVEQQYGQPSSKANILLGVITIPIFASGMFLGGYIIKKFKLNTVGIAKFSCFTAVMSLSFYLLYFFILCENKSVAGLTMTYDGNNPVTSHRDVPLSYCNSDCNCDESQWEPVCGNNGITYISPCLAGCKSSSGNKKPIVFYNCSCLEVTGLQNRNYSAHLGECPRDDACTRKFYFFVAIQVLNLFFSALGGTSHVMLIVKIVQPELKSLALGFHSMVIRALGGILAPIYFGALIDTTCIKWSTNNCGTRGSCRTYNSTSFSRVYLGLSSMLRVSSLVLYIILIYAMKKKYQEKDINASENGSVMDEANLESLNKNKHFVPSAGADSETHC
# T1 sequence (P35503 29-534): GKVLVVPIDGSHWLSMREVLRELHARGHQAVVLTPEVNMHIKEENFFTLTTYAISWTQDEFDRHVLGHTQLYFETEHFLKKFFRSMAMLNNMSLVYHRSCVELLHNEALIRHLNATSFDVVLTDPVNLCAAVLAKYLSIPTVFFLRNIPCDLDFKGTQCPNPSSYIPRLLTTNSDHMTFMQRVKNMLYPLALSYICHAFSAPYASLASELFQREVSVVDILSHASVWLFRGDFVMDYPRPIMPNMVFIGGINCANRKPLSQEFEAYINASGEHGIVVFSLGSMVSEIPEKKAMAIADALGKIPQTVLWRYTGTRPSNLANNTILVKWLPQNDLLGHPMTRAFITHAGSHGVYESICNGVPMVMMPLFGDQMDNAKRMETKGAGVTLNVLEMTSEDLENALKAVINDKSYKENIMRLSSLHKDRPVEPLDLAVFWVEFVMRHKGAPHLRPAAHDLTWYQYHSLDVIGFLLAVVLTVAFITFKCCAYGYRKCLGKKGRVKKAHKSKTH
# T3 sequence (P22309 26-533): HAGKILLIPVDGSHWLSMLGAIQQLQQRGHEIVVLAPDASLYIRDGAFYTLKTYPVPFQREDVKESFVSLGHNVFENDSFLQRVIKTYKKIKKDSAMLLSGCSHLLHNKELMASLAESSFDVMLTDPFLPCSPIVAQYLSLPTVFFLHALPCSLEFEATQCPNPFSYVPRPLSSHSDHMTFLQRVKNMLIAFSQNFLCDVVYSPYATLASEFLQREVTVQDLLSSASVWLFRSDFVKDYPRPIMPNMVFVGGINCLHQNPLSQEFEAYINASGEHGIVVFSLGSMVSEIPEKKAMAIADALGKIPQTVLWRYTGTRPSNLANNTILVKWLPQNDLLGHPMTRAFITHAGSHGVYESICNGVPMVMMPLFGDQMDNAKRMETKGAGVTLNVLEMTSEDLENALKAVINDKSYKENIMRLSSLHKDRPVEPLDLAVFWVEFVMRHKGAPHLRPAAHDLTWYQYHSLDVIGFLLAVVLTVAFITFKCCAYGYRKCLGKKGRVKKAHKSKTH
# Chain of UGT1A9 (O60656 26-530): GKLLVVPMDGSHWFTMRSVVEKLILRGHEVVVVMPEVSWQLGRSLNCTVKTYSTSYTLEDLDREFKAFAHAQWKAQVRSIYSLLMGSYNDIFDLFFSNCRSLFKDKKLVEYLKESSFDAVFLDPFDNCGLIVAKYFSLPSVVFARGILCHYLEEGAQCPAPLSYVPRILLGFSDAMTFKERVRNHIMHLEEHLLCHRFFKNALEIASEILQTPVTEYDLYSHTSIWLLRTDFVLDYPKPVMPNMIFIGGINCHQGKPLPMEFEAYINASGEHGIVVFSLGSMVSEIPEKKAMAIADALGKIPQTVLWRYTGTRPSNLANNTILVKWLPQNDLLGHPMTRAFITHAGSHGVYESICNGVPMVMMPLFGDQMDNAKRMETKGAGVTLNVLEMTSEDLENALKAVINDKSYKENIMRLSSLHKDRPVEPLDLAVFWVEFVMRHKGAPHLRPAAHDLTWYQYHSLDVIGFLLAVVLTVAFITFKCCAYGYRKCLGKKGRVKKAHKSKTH
# Chain of UGT2B7 (P16662 24-529): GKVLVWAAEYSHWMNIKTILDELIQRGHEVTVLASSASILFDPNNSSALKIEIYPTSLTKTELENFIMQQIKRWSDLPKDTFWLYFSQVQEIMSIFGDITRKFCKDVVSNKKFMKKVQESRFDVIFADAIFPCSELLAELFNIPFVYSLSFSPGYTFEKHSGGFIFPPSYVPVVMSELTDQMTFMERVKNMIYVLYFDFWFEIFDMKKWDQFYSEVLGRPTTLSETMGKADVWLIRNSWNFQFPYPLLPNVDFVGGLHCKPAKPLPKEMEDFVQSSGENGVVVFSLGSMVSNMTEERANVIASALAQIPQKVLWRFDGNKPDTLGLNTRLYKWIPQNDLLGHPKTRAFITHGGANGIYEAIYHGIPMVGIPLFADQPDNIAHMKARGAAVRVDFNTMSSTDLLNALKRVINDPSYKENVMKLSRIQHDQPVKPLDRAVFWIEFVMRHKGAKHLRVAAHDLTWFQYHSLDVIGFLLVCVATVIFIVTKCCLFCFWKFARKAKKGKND
# Chain of UGT1A6 (P19224 27-532): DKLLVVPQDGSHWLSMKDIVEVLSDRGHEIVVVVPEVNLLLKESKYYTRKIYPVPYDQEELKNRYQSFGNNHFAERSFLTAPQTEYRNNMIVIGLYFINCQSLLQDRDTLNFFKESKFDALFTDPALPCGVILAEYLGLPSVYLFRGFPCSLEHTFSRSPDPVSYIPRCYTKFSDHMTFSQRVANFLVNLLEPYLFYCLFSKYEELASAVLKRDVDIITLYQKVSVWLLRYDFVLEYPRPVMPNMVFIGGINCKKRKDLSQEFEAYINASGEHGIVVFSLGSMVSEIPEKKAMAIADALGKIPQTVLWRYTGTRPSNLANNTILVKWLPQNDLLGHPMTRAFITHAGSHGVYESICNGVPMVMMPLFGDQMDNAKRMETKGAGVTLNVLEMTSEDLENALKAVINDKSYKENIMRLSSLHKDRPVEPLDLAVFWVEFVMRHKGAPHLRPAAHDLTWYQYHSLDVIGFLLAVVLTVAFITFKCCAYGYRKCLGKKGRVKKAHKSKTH
# Chain of CYP2C9 (P11712 whole entry): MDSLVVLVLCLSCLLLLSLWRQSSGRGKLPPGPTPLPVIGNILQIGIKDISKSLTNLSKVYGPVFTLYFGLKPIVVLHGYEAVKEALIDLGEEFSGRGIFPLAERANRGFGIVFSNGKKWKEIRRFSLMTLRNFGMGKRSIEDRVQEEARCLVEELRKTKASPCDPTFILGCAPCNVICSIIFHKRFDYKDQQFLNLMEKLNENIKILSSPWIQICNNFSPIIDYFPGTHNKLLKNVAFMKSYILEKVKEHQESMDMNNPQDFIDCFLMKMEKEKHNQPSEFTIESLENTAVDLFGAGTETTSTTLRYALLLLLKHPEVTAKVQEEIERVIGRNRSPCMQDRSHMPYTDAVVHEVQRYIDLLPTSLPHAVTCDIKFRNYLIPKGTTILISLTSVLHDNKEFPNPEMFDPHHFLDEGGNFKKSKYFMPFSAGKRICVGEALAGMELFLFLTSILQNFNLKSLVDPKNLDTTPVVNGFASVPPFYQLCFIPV
smiles,measurement,setting,value
"CC1=NN(c2ccc(C)c(C)c2)C(=O)/C1=N\Nc1cccc(-c2cccc(C(=O)O)c2)c1O.NCCO.NCCO [Eltrombopag olamine, 3′-{(2Z)-2-[1-(3,4-dimethylphenyl)-3-methyl-5-oxo-1,5-dihydro-4H-pyrazol-4-ylidene]hydrazino}-2′-hydroxy-3-biphenylcarboxylic acid-2-aminoethanol (1:2)]",solubility in water,Solubility,sparingly soluble
same,solubility in aqueous buffer,Solubility; pH range of 1 to 7.4,practically insoluble
"CC1=NN(c2ccc(C)c(C)c2)C(=O)/C1=N\Nc1cccc(-c2cccc(C(=O)O)c2)c1O [eltrombopag, 3′-[(2Z)-[1-(3,4-dimethylphenyl)-1,5-dihydro-3-methyl-5-oxo-4H-pyrazol-4-ylidene]hydrazino]-2′-hydroxy-[1,1′-biphenyl]-3-carboxylic acid]",inhibition of CYP2C9,CYP2C9,inhibitor
same,mutagenicity/clastogenicity,rats [1],not mutagenic or clastogenic
same,liver finding,rats [2],hepatocellular hypertrophy
same,liver finding (vacuolation),rats [2],hepatocellular vacuolation
same,duration of dosing after which cataracts were observed,rats [2]; 28 weeks,28 weeks
same,duration of dosing after which cataracts were observed,rats [2]; 39 weeks,39 weeks
same,role of UGT1A3 in glucuronidation,UGT1A3 [3],responsible
same,decrease of Cmax with food,[4],65%
same,decrease of plasma AUC0-∞ with food,[4],approximately 59%
same,inhibition of CYP2C8,CYP2C8 [5],inhibitor
same,dose found in the urine,[6]; % of dose,31%
same,excretion via feces,[6]; % of dose,59%
same,unchanged eltrombopag in feces,[6]; % of dose,approximately 20%
same,extent of metabolism,"[6]; cleavage, oxidation, conjugation",extensively metabolized
same,share of plasma radiocarbon AUC0-∞,[6]; human radiolabel study,approximately 64%
same,renal excretion,"[6]; human, in vivo",not significantly renally excreted
same,unchanged eltrombopag in urine,"[6]; human, in vivo",not detectable
same,time of peak concentration after oral administration,"[6]; human, in vivo, po",2 to 6 h
same,half-life,"[6]; human, ITP patients",26 to 35 h
same,half-life,"[6]; human, healthy subjects",21 to 32 h
same,concentration in blood cells as % of plasma concentrations,[6]; radiolabel study,50-79%
same,oral absorption of drug-related material,"[6]; single 75 mg solution dose, from urinary excretion and fecal biotransformation products",at least 52%
same,liver finding,mice [7],hepatocellular hypertrophy
same,renal tubular effects after 13 weeks,mice [7],No similar effects were observed
same,renal tubular toxicity,mice [7],Renal tubular toxicity was observed
same,duration of dosing after which cataracts were observed,mice [7]; 6 weeks,6 weeks
same,duration of dosing after which cataracts were observed,mice [7]; 13 weeks,13 weeks
same,role of CYP1A2 in oxidative metabolism,CYP1A2,responsible; also recorded: involved
same,early embryonic development findings,female rats,Increased pre- and post-implantation loss and reduced fetal weight
same,cataracts,dogs [8],Cataracts were not observed
same,liver finding,dogs [8],hepatocellular hypertrophy
same,renal tubular toxicity,dogs [8],Renal tubular toxicity was not observed
same,role of CYP2C8 in oxidative metabolism,CYP2C8 [9],responsible; also recorded: involved
same,substrate for p-glycoprotein (Pgp),p-glycoprotein (Pgp),not a substrate
same,liver finding,rabbits,hepatocellular hypertrophy
same,inhibition of UGT1A4,UGT1A4,inhibitor
same,inhibition of UGT1A6,UGT1A6,inhibitor
same,inhibition of UGT2B7,UGT2B7,inhibitor
same,inhibition of UGT1A3,UGT1A3 [10],inhibitor
same,inhibition of UGT1A1,UGT1A1 [11],inhibitor
same,inhibition of UGT2B15,UGT2B15,inhibitor
same,inhibition of UGT1A9,UGT1A9,inhibitor
same,photoclastogenicity in vitro,[12],photoclastogenic
same,phototoxicity in vitro,[12],phototoxic
same,drug concentrations at which photoclastogenic effects were observed,"[12]; cytotoxic concentrations, UV 30 MED",≥ 15000 ng/mL
same,photoclastogenicity in vitro at lower UV exposure,"[12]; up to 58.4 mcg/mL, UV 15 MED",No evidence of in vitro photoclastogenicity
same,mutagenicity/clastogenicity,rats [13],not mutagenic or clastogenic
same,female fertility,"rats [14]; doses up to 20 mg/kg/day (2 times human clinical exposure, AUC)",did not affect female fertility
same,male fertility,"rats [14]; doses up to 40 mg/kg/day, highest dose tested (5 times human clinical exposure, AUC)",did not affect male fertility
same,mutagenicity/clastogenicity,bacterial,not mutagenic or clastogenic
same,platelet production,dogs [15],does not stimulate platelet production
same,plasma exposure higher than in non-Asian subjects,[16]; East Asian subjects with ITP,approximately 70%
same,systemic exposure higher,[16]; healthy African-American subjects,approximately 40%
same,apparent clearance greater in males than females,"[16]; population PK model, adjusted for body weight",27%
same,plasma protein binding,human plasma proteins,highly bound to plasma proteins
same,bound to human plasma proteins,human plasma proteins; in vitro,> 99%
same,plasma concentrations in pups versus dose,"pregnant rats (F0); 0.8 and 2 times human clinical exposure (AUC), drug given to F0 dams",increased with dose
same,presence in plasma of offspring (F1),pregnant rats (F0); after administration to F0 dams,detected
same,effects on maternal reproductive function or development of offspring (F1),pregnant rats (F0); doses up to 2 times human clinical exposure (AUC),no adverse effects
same,inhibition of OATP1B1,OATP1B1 [17],inhibitor
same,"fetotoxicity, embryolethality, or teratogenicity",pregnant rabbits,"no evidence of fetotoxicity, embryolethality, or teratogenicity"
same,platelet production,rats [18],does not stimulate platelet production
same,substrate for OATP1B1,OATP1B1 [19],not a substrate
same,photo-ocular toxicity,mice [20],no evidence
same,role of UGT1A1 in glucuronidation,UGT1A1 [21],responsible
same,exposure at the lowest dose relative to human clinical exposure based on AUC,mice [22],1.4 times
same,platelet production,mice [23],does not stimulate platelet production
same,in vivo cutaneous phototoxicity,mice [24],no evidence
same,photo-ocular toxicity,rats [25],no evidence
same,mouse lymphoma assay result,mouse lymphoma; in vitro,marginally positive
same,increase in mutation frequency,mouse lymphoma; in vitro mouse lymphoma assay,< 3 fold
same,embryofetal findings,pregnant rats,Decreased fetal weights and a slight increase in the presence of cervical ribs
same,major structural malformations,pregnant rats,no evidence of major structural malformations
COc1c(N2C[C@@H]3CCCN[C@@H]3C2)c(F)cc2c(=O)c(C(=O)O)cn(C3CC3)c12 [moxifloxacin],QTc effect of positive control,healthy adult subjects,significant QTc prolongation

# Source: patent US20140142155A1, “METHOD OF TREATING THROMBOCYTOPENIA” (GlaxoSmithKline LLC, priority 2008, published 2014)
